What all share (type): cell-based
Assay [1] has as its system AsPC-1 (homozygous mutant KRAS G12D human pancreatic cell line). Put plainly: KRAS 3D-Cell Proliferation Assay, AsPC-1 (Example 503). As to conditions: Homo sapiens, ASPC1, 168 h, AsPC-1 3D culture, 7 days, CellTiter-Glo 3D; read-out: Prolif AsPC-1 3D ATP IC50. Here is the method: Example 503: KRAS 3D-Cell Proliferation Assays. Cellular potencies of compounds are assessed by evaluating inhibition of proliferation in 3D cultures of homozygous mutant KRAS G12D human pancreatic cell lines (AsPC-1 and HPAC) as compared to a KRAS wild type human lung adenocarcinoma cell line (PC-9 and/or H1975). Cells are seeded into 384-well black round-bottom, ultra-low attachment assay plates in 50 uL cell growth medium (RPMI-1640 with 10% fetal bovine serum and 2 mM L-glutamine). After overnight incubation at 37° C. and 5% CO2, compounds solubilized in DMSO are added as dilution series to the wells in a total volume of 150 nL (0.3% DMSO final). The cells are incubated for 7 days at 37° C. and 5% CO2. Cell proliferation is quantitated by addition of 40 uL/well of CellTiter-GloÒ 3D (Promega), and the well contents are mixed 20× at high speed using liquid handling automation workstation (Bravo with 384-well head) and centrifuged at 1500 rpm for 2 minutes to eliminate bubbles. This reagent in combination with mechanical disruption releases the cellular ATP to promote activity in a luciferase-based enzyme/substrate chemiluminescent detection system. After a 30-minute incubation under ambient conditions with shaking and an additional 10 minutes without shaking, the luminescence is read on a plate reader (e.g., EnVision [PerkinElmer]). The results are normalized to percent inhibition based on the following control samples: DMSO (0% inhibition) and 1 μM staurosporine (100% inhibition). The normalized luminescence results are plotted against compound concentration, and the data are fit to a 4-parameter Hill equation to determine the IC50 values.
For orientation: Cellular ATP, detected with luciferase, serves as a proxy for viable cell number.

The subject of assay [2] is HPAC (homozygous mutant KRAS G12D human pancreatic cell line). Put plainly: KRAS 3D-Cell Proliferation Assay, HPAC (Example 503). Particulars: Homo sapiens, HPAC, 168 h, HPAC 3D culture, 7 days, CellTiter-Glo 3D; read-out: Prolif HPAC 3D ATP IC50. Put shortly:
(§1)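 IC50s come from a 4-parameter Hill fit of luminescence (CellTiter-Glo 3D) normalized between DMSO (0%) and 1 μM staurosporine (100%). Cells in low-attachment 3D culture, RPMI-1640 with 10% FBS, received serial compound dilutions (0.3% DMSO) after overnight and were incubated 7 days at 37 °C.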

In assay [3] the test system is H1975 (KRAS wild type human lung adenocarcinoma cell line). Put plainly: KRAS 3D-Cell Proliferation Assay, H1975 (Example 503). Particulars: Homo sapiens, NCI-H1975, 168 h, H1975 3D culture, 7 days, CellTiter-Glo 3D; read-out: Prolif H1975 3D ATP IC50. Summed up:
as §1

Usually IC50 stands for the concentration that inhibits the measured activity by half. `Cc1c(F)c(N)cc(-c2nc3c4c(nc(OCC56C[C@@H](F)CN5C[C@H](F)C6)nc4c2F)N2C[C@H]4CC[C@H](N4)[C@H]2[C@H](C)O3)c1C(F)(F)F` [Compound 140, 5-((5S,5aS,6S,9R)-12-(((2R,6R)-2,6-Difluorotetrahydro-1H-pyrrolizin-7a(5H)-yl)methoxy)-1-fluoro-5-methyl-5a,6,7,8,9,10-hexahydro-5H-4-oxa-3,10a,11,13,14-pentaaza-6,9-methanonaphtho[1,8-ab]heptalen-2-yl)-2-fluoro-3-methyl-4-(trifluoromethyl)aniline]: the results for the IC50 in assay [1], in assay [2] and in assay [3] were 4.4 nM, 2.53 nM and 2060 nM, respectively.

In the case of `Cc1c(F)c(N)cc(-c2nc3c4c(nc(OCC5(CN6CCOCC6)CC5)nc4c2F)N2C[C@H]4CC[C@H](N4)[C@H]2[C@H](C)O3)c1CC(F)F` [Compound 156, 4-(2,2-Difluoroethyl)-2-fluoro-5-((5S,5aS,6S,9R)-1-fluoro-5-methyl-12-((1-(morpholinomethyl)cyclopropyl)methoxy)-5a,6,7,8,9,10-hexahydro-5H-4-oxa-3,10a,11,13,14-pentaaza-6,9-methanonaphtho[1,8-ab]heptalen-2-yl)-3-methylaniline], the IC50 in assay [1] turned out to be 9.4 nM; in assay [2] it was 2.94 nM; in assay [3] it was 776 nM.

Regarding `Cc1c(F)c(N)cc(-c2nc3c4c(nc(OC[C@H]5[C@@H](O)CCN5C)nc4c2F)N2C[C@H]4CC[C@H](N4)[C@H]2[C@H](C)O3)c1C(F)(F)F` [Compound 162, (2S,3S)-2-((((5S,5aS,6S,9R)-2-(5-Amino-4-fluoro-3-methyl-2-(trifluoromethyl)phenyl)-1-fluoro-5-methyl-5a,6,7,8,9,10-hexahydro-5H-4-oxa-3,10a,11,13,14-pentaaza-6,9-methanonaphtho[1,8-ab]heptalen-12-yl)oxy)methyl)-1-methylpyrrolidin-3-ol], the IC50 in assay [1] came out at 200 nM; in assay [2], 48.7 nM; in assay [3], 9450 nM.

With `Cc1c(F)c(N)cc(-c2nc3c4c(nc(OCC5(CN6CCO[C@H](C)C6)CC5)nc4c2F)N2C[C@H]4CC[C@H](N4)[C@H]2[C@H](C)O3)c1C(F)(F)F` [Compound 168, 2-Fluoro-5-((5S,5aS,6S,9R)-1-fluoro-5-methyl-12-((1-(((R)-2-methylmorpholino)methyl)cyclopropyl)methoxy)-5a,6,7,8,9,10-hexahydro-5H-4-oxa-3,10a,11,13,14-pentaaza-6,9-methanonaphtho[1,8-ab]heptalen-2-yl)-3-methyl-4-(trifluoromethyl)aniline], the values for the half-inhibitory concentration (IC50) in assay [1], in assay [2] and in assay [3] were 0.7 nM, 0.472 nM and 656 nM, respectively.

Turning to `Cc1c(F)c(N)cc(-c2nc3c4c(nc(OCC5(CN6C[C@H]7C[C@@H]6CO7)CC5)nc4c2F)N2C[C@H]4CC[C@H](N4)[C@H]2[C@H](C)O3)c1C(F)(F)F` [Compound 170, 5-((5S,5aS,6S,9R)-12-((1-(((1R,4R)-2-Oxa-5-azabicyclo[2.2.1]heptan-5-yl)methyl)cyclopropyl)methoxy)-1-fluoro-5-methyl-5a,6,7,8,9,10-hexahydro-5H-4-oxa-3,10a,11,13,14-pentaaza-6,9-methanonaphtho[1,8-ab]heptalene-2-yl)-2-fluoro-3-methyl-4-(trifluoromethyl)aniline], the half-inhibitory concentration (IC50) in assay [1] came out at 0.8 nM; in assay [2], 0.92 nM; in assay [3], 506 nM.

With `Cc1c(F)c(N)cc(-c2nc3c4c(nc(OCC5(CN6CC7(COC7)C6)CC5)nc4c2F)N2C[C@H]4CC[C@H](N4)[C@H]2[C@H](C)O3)c1C(F)(F)F` [Compound 174, 5-((5S,5aS,6S,9R)-12-((1-((2-Oxa-6-azaspiro[3.3]heptan-6-yl)methyl)cyclopropyl)methoxy)-1-fluoro-5-methyl-5a,6,7,8,9,10-hexahydro-5H-4-oxa-3,10a,11,13,14-pentaaza[6,9]methanonaphtho[1,8-ab]heptalene-2-yl)-2-fluoro-3-methyl-4-(trifluoromethyl)aniline], the IC50 in assay [1] stood at 1.3 nM; in assay [2] it was 3.86 nM; in assay [3] it was 227 nM.

With `Cc1cc2[nH]ncc2c(-c2nc3c4c(nc(OC[C@@]56CCCN5C[C@H](F)C6)nc4c2F)N2C[C@H]4CC[C@H](N4)[C@H]2[C@H](C)O3)c1Cl` [Compound 176, (5S,5aS,6S,9R)-2-(5-Chloro-6-methyl-1H-indazol-4-yl)-1-fluoro-12-(((2R,7aS)-2-fluorotetrahydro-1H-pyrrolizin-7a(5H)-yl)methoxy)-5-methyl-5a,6,7,8,9,10-hexahydro-5H-4-oxa-3,10a,11,13,14-pentaaza-6,9-methanonaphtho[1,8-ab]heptalene], the half-inhibitory concentration (IC50) in assay [1] worked out at 200 nM; in assay [2] it was 168 nM; in assay [3], 15200 nM.

In the case of `Cc1cc(N)c(F)c(-c2nc3c4c(nc(OC[C@@]56CCCN5C[C@H](F)C6)nc4c2F)N2C[C@H]4CC[C@H](N4)[C@H]2[C@H](C)O3)c1CC(F)(F)F` [Compound 182, 2-Fluoro-3-((5S,5aS,6S,9R)-1-fluoro-12-(((2R,7aS)-2-fluorotetrahydro-1H-pyrrolizin-7°(5H)-yl)methoxy)-5-methyl-5°,6,7,8,9,10-hexahydro-5H-4-oxa-3,10°,11,13,14-pentaaza-6,9-methanonaphtho[1,8-ab]heptalen-2-yl)-5-methyl-4-(2,2,2-trifluoroethyl)aniline], the IC50 in assay [1] was 8.3 nM; in assay [2], 4.12 nM; in assay [3], 1910 nM.

As for `C[C@@H]1Oc2nc(-c3cc(N)c(F)c(F)c3CC(F)(F)F)c(F)c3nc(OC[C@@]45CCCN4C[C@H](F)C5)nc(c23)N2C[C@H]3CC[C@H](N3)[C@@H]12` [Compound 183, 2,3-Difluoro-5-((5S,5aS,6S,9R)-1-fluoro-12-(((2R,7aS)-2-fluorotetrahydro-1H-pyrrolizin-7a(5H)-yl)methoxy)-5-methyl-5a,6,7,8,9,10-hexahydro-5H-4-oxa-3,10a,11,13,14-pentaaza-6,9-methanonaphtho[1,8-ab]heptalene-2-yl)-4-(2,2,2-trifluoroethyl)aniline], the IC50 in assay [1] came out at 4.2 nM; in assay [2], 2.32 nM; in assay [3], 852 nM.

As to `C[C@@H]1Oc2nc(-c3cc(N)c(F)c(Cl)c3CC(F)F)c(F)c3nc(OC[C@@]45CCCN4C[C@H](F)C5)nc(c23)N2C[C@H]3CC[C@H](N3)[C@@H]12` [Compound 186, 3-Chloro-4-(2,2-difluoroethyl)-2-fluoro-5-((5S,5aS,6S,9R)-1-fluoro-12-(((2R,7aS)-2-fluorotetrahydro-1H-pyrrolizin-7a(5H)-yl)methoxy)-5-methyl-5a,6,7,8,9,10-hexahydro-5H-4-oxa-3,10a,11,13,14-pentaaza-6,9-methanonaphtho[1,8-ab]heptalene-2-yl)aniline], the results for the IC50 in assay [1], in assay [2] and in assay [3] were 8.9 nM, 2.58 nM and 1090 nM, respectively.

For `C[C@@H]1Oc2nc(-c3cc(N)c(F)c(F)c3CC(F)F)c(F)c3nc(OC[C@@]45CCCN4C[C@H](F)C5)nc(c23)N2C[C@H]3CC[C@H](N3)[C@@H]12` [Compound 190, 4-(2,2-Difluoroethyl)-2,3-difluoro-5-((5S,5aS,6S,9R)-1-fluoro-12-(((2R,7aS)-2-fluorotetrahydro-1H-pyrrolizin-7a(5H)-yl)methoxy)-5-methyl-5a,6,7,8,9,10-hexahydro-5H-4-oxa-3,10a,11,13,14-pentaaza-6,9-methanonaphtho[1,8-ab]heptalene-2-yl)aniline], the values for the IC50 in assay [1], in assay [2] and in assay [3] were 12.6 nM, 2.2 nM and 1560 nM, respectively.

On to `Cc1nc(N)c(F)c(-c2nc3c4c(nc(OC[C@@]56CCCN5C[C@H](F)C6)nc4c2F)N2C[C@H]4CC[C@H](N4)[C@H]2[C@H](C)O3)c1C(F)(F)F` [Compound 194, 3-Fluoro-4-((5S,5aS,6S,9R)-1-fluoro-12-(((2R,7aS)-2-fluorotetrahydro-1H-pyrrolizin-7a(5H)-yl)methoxy)-5-methyl-5a,6,7,8,9,10-hexahydro-5H-4-oxa-3,10a,11,13,14-pentaaza-6,9-methanonaphtho[1,8-ab]heptalen-2-yl)-6-methyl-5-(trifluoromethyl)pyridin-2-amine], for which the IC50 in assay [1] turned out to be 2.7 nM; in assay [2], 4.99 nM; in assay [3], 919 nM.

The values are drawn from patent US12338256B2, “Aza-tetracyclic oxazepine compounds and uses thereof” (Genentech, Inc., priority 2022, dated 2025).
